The conditions of series [1]: rat, brain synaptosomal fraction; cited from earlier work.
In the next series the test system is CCK-A receptors. Particulars: in words; cited from earlier work.
A further series concerns CCK-B receptors. The note with it: in words; cited from earlier work.
A further series has as its target T1, CCK receptor (pancreas) (Rattus norvegicus, UniProt P30551).
T1 construct: The whole pancreas was dissected free of fat tissue and was homogenized; from tissue; host or cells: rat whole pancreas, membrane preparation
T1 sequence (P30551 1-444): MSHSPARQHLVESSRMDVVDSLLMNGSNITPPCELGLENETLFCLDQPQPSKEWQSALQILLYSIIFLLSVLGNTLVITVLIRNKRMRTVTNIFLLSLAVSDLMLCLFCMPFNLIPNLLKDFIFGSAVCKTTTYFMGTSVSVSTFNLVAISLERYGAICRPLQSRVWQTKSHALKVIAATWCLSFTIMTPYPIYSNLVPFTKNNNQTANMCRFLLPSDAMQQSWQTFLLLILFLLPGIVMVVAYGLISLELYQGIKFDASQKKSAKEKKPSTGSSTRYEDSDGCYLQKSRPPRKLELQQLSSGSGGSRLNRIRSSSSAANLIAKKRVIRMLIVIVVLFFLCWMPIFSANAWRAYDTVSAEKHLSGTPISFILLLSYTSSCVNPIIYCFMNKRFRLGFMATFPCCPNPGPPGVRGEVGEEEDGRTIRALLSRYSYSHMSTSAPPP
Kind of series: CCK receptor binding (Pancreas), inhibition of 125I-CCK binding. Set-up: species or system rat (male Sprague-Dawley). The note with it: 125I-CCK-33, 37° C., 30 minutes, read-out: IC^50 ^125 I-CCK Pancreas. Here is the method:
1. CCK Receptor Binding (Pancreas)
CCK-33 was radiolabeled with ^125 I-Bolton Hunter reagent (2000 Ci/mmole) as described by Sankara et al. (J. Biol. Chem. 254: 9349-9351, 1979). Receptor binding was performed according to Innis and Snyder (Proc. Natl. Acad. Sci. 77: 6917-6921, 1980) with the minor modification of adding the additional protease inhibitors, phenyl-methane sulfonyl fluoride and o-phenanthroline. The latter two compounds have no effect on the ^125 I-CCK receptor binding assay.
Male Sprague-Dawley rats (200-350g) were sacrificed by decapitation. The whole pancreas was dissected free of fat tissue and was homogenized in 20 volumes of ice-cold 50 mM, Tris HCl (pH 7.7 at 25° C.) with a Brinkmann Polytron PT 10. The homogenates were centrifuged at 48,000 g for 10 min. Pellets were resuspended in Tris Buffer, centrifuged as above and resuspended in 200 volumes of binding assay buffer (50 mM Tris HCl, pH 7.7 at 25° C., 5 mM dithiothrietol, 0.1 mM bacitracin, 1.2 mM phenylmethane sulfonyl fluoride and 0.5 mM o-phenanthroline). […] All assays were run in duplicate or triplicate. The reaction mixtures were incubated at 37° C. for 30 minutes and centrifuged in a Beckman Microfuge (4 minutes) immediately after adding 1 ml of ice-cold incubation buffer. The supernatant was aspirated and discarded, pellets were counted with a Beckman gamma 5000. For Scatchard analysis (Ann. N.Y. Acad. Sci. 51: 660, 1949), ^125 I-CCK-33 was progressively diluted with increasing concentrations of CCK-33.

The next series deals with T2, CCK receptor (brain) (Cavia porcellus, UniProt H0VZC5).
T2 construct: Cerebral cortex was dissected and used as a receptor source; from tissue; host or cells: guinea pig cerebral cortex, membrane preparation
The experiment in a line: CCK receptor binding (Brain), inhibition of 125I-CCK binding. Set-up: species or system guinea pig (male Hartley). The note with it: guinea pig cerebral cortex, 125I-CCK-33, 25° C., 2 hours; read-out: IC^50 ^125 I-CCK Brain. As to the method: 2. CCK Receptor Binding (Brain)
CCK-33 was radiolabeled and the binding was performed according to the description for the pancreas method with modifications according to Saito et al., J. Neurochem. 37, 483-490, 1981.
Male Hartley guinea pigs (300-500 g) were sacrificed by decapitation and the brains were removed and placed in ice-cold 50 mM, Tris HCl plus 7.58 g/l Trizma-7.4 (pH 7.4 at 25° C.). Cerebral cortex was dissected and used as a receptor source. Each gram of fresh guinea pig brain tissue was homogenized in 10 ml of Tris Trizma buffer with a Brinkman polytron PT-10. The homogenates were centrifuged at 42,000 g for 15 min. […] All assays were run in duplicate or triplicate. The reaction mixtures were incubated at 25° C. for 2 hours and centrifuged in a Beckman Microfuge (4 minutes) immediately after adding 1 ml of ice-cold incubation buffer. The supernatant was aspirated and discarded, pellets were counted with a Beckman gamma 5000.

The target in another series is T3, gastrin receptor (Cavia porcellus, UniProt H0VZC5).
T3 construct: Guinea pig gastric mucosal glands were prepared by the procedure of Berglingh and Obrink; from tissue; host or cells: guinea pig gastric mucosal glands
The experiment in a line: Gastrin receptor binding in guinea pig gastric glands. Set-up: species or system guinea pig (male Hartley). Particulars: read-out: IC^50 Gastrin. As to the method:
Gastrin antagonist activity of compounds of Formula I is determined using the following assay: […]
Gastrin Receptor Binding in Guinea Pig Gastric Glands Preparation of guinea pig gastric mucosal glands
Guinea pig gastric mucosal glands were prepared by the procedure of Berglingh and Obrink Acta Physiol. Scand. 96: 150 (1976) with a slight modification according to Praissman et al. C. J. Receptor Res. 3: (1983). Gastric mucosa from guinea pigs (300-500 g body weight, male Hartley) were washed thoroughly and minced with fine scissors in standard buffer consisting of the following: 130 mM NaCl, 12 mM NaHCO3, 3 mM NaH2 PO4, 3 mM K2 HPO4, 2 mM MgSO4, 1 mM CaCl2, 5 mM glucose and 4 mM L-glutamine, 25 mM HEPES at pH 7.4. The minced tissues were washed and then incubated in a 37° C. shaker bath for 40 minutes with the buffer containing 0.1% collagenase and 0.1% BSA and bubbled with 95% O2 and 5% CO2. The tissues were passed twice through a 5 ml glass syringe to liberate the gastric glands, and then filtered through 200 mesh nylon. The filtered glands were centrifuged at 270 g for 5 minutes and washed twice by resuspension and centrifugation.

In a further series the test system is stomach gastrin receptor. Particulars: in words; cited from earlier work.

T2 sequence (H0VZC5 entry or part of it): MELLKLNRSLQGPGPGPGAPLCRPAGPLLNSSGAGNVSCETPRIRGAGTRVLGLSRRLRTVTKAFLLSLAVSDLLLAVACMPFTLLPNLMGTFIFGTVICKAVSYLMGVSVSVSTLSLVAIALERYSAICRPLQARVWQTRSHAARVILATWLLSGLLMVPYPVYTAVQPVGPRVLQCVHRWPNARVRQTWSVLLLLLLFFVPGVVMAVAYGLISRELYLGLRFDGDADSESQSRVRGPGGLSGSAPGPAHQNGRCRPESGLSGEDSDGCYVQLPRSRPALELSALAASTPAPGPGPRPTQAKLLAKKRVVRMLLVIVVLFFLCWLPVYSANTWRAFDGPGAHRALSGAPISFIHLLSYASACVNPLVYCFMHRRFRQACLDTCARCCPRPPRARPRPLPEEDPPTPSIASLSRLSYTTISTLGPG
T3 sequence (H0VZC5 entry or part of it): as above

`CSCC[C@H](NC(=O)[C@H](Cc1ccc(OS(=O)(=O)O)cc1)NC(=O)[C@@H](N)CC(=O)O)C(=O)NCC(=O)N[C@@H](Cc1c[nH]c2ccccc12)C(=O)N[C@@H](CCSC)C(=O)N[C@@H](CC(=O)O)C(=O)N[C@@H](Cc1ccccc1)C(N)=O` [CCK-8s, H-Asp-Tyr(SO3 H)-Met-Gly-Trp-Met-Asp-Phe-NH2]: the half-life result in series [1] was “less than 1 hour”. Besides, in the series with CCK-A receptors, the “affinity for CCK-A receptors” value is “high affinity”. In addition, the “affinity for CCK-B receptors” value with CCK-B receptors is “high affinity”.
For `Cc1cccc(NC(=O)NC2N=C(c3ccccc3)c3ccccc3N=C2NCC(=O)N2CCN(C)CC2)c1` (stereo not shown) [Example 12, 1-Methyl-4-[[(3-((((3-methylphenyl)amino)carbonyl)amino)-5-phenyl-3H-1,4-benzodiazepin-2-yl)amino]acetyl]-piperazine], the IC50 was found to be 1000 nM on CCK receptor (pancreas), 124 nM at CCK receptor (brain) and 180 nM on gastrin receptor.
For the compound `CCN(CC)CCCNC1=Nc2ccccc2C(c2ccccc2)=NC1NC(=O)Nc1cccc(C)c1` (stereo not shown) [Example 13, N-[2-[((3-Diethylamino)propyl)amino]-5-phenyl-3H-1,4-benzodiazepin-3-yl]-N'-[3-methylphenyl]-urea], the IC50 came out at 14000 nM at CCK receptor (pancreas), 78 nM on CCK receptor (brain) and 120 nM on gastrin receptor.
On to `Cc1cccc(NC(=O)NC2N=C(c3ccccc3)c3ccccc3N=C2NCCCN2CCCC2=O)c1` (stereo not shown) [Example 14, N-[3-Methylphenyl]-N'-[2-((3-(2-oxo)pyrrolidinyl)propyl)amino-5-phenyl-3H-1,4-benzodiazepin-3-yl]-urea], for which the IC50 amounted to 590 nM at CCK receptor (pancreas), 15 nM on CCK receptor (brain) and 13 nM on gastrin receptor.
Take “gastrin: neuropeptide structurally related to cholecystokinin”: the “affinity for CCK-A receptors” value in the series with CCK-A receptors is given as “lower affinity”.
Regarding `CSC1=Nc2ccccc2C(c2ccccc2F)=N[C@@H]1Cc1c[nH]c2ccccc12` [Example 2, 2-Methylthio-3(R)-(3'-indolyl)methyl-5-(2'-fluorophenyl)2H-1,4-benzodiazepine], the IC50 at CCK receptor (pancreas) is 17000 nM.
As to `CSCC[C@H](NC(=O)[C@@H](N)Cc1c[nH]c2ccccc12)C(=O)N[C@@H](CC(=O)O)C(=O)N[C@@H](Cc1ccccc1)C(N)=O` [CCK-4], the “affinity for CCK-A receptors” value in the series on CCK-A receptors was “lower affinity”. The “affinity for CCK-B receptors” value with CCK-B receptors is recorded as “high affinity”. In addition, the “potency at stomach gastrin receptor” value in the series with stomach gastrin receptor is reported as “minimum fully potent CCK sequence”.
Consider `CSCC[C@H](NC(=O)[C@H](Cc1ccc(O)cc1)NC(=O)[C@@H](N)CC(=O)O)C(=O)NCC(=O)N[C@@H](Cc1c[nH]c2ccccc12)C(=O)N[C@@H](CCSC)C(=O)N[C@@H](CC(=O)O)C(=O)N[C@@H](Cc1ccccc1)C(N)=O` [CCK-8d], for which the “affinity for CCK-A receptors” value in the series on CCK-A receptors is “lower affinity”.
For `Cc1cccc(NC(=O)NC2N=C(c3ccccc3)c3ccccc3N=C2NCC(=O)N2CCCC2)c1` (stereo not shown) [Example 11, 1-[[(3-((3-Methylphenylaminocarbonyl)amino)-5-phenyl-3H-1,4-benzodiazepin-2-yl)amino]acetyl]-pyrrolidine], the values for the IC50 on CCK receptor (pancreas), on CCK receptor (brain) and at gastrin receptor were 1100 nM, 5.9 nM and 20 nM, respectively.
For the compound `CSCC[C@H](NC(=O)[C@H](Cc1c[nH]c2ccccc12)NC(=O)CCNC(=O)OC(C)(C)C)C(=O)N[C@@H](CC(=O)O)C(=O)N[C@@H](Cc1ccccc1)C(N)=O` [pentagastrin], the “affinity for CCK-B receptors” value in the series with CCK-B receptors was “high affinity”.

Values taken from patent US5206237A, “Benzodiazepine analogs” (Merck & Co., Inc., priority 1991, dated 1993).
